The text below walks through data of BindingDB's records for doi:10.7270/Q2NS0S90 (The Scripps Research Institute Molecular Screening Center, 2009).

The target in the experiment is VIM-2 metallo β-lactamase (Pseudomonas aeruginosa, UniProt Q9K2N0). Briefly: VIM-2 inhibitor FRET-based artefact check, dose response, artefact control for selective VIM-2 inhibitor project, biochemical, FRET readout, CCF2 substrate (AID 1926).
Regarding `COc1ccc(OC)c(C2C(C(=O)c3ccco3)C(=O)C(=O)N2Cc2cccnc2)c1` (configuration not stated) [2-(2,5-dimethoxyphenyl)-3-(furan-2-carbonyl)-4-hydroxy-1-(pyridin-3-ylmethyl)-2H-pyrrol-5-one], half-maximal inhibition (IC50) was put at 700 nM.
To `O=C1C(=O)N(Cc2cccnc2)C(c2ccccn2)C1C(=O)c1cccs1` (configuration not stated) [3-hydroxy-5-(2-pyridinyl)-1-(3-pyridinylmethyl)-4-(2-thienylcarbonyl)-1,5-dihydro-2H-pyrrol-2-one] belongs 4830 nM.
Consider `COc1ccc(C(=O)C2C(=O)C(=O)N(Cc3ccco3)C2c2cc(OC)ccc2OC)cc1` (configuration not stated) [(4E)-5-(2,5-dimethoxyphenyl)-1-(2-furanylmethyl)-4-[hydroxy-(4-methoxyphenyl)methylidene]pyrrolidine-2,3-dione], for which the half-inhibitory concentration (IC50) – broadly, the concentration needed to halve the response being measured – was determined as 5610 nM.
Turning to `O=C1C(=O)N(Cc2cccnc2)C(c2ccccn2)C1C(=O)c1ccc(F)cc1` (configuration not stated) [(4Z)-4-[(4-fluorophenyl)-hydroxy-methylene]-5-(2-pyridyl)-1-(3-pyridylmethyl)pyrrolidine-2,3-quinone], it took 941 nM to reach half-maximal inhibition (IC50).
On to `O=C1C(=O)N(Cc2cccnc2)C(c2ccccn2)C1C(=O)c1ccccc1` (configuration not stated) [(4Z)-4-[hydroxy(phenyl)methylene]-5-(2-pyridyl)-1-(3-pyridylmethyl)pyrrolidine-2,3-quinone], for which half-maximal inhibition (IC50) required 2170 nM.
Take `COc1cc(OC)c(OC)cc1C=NNC(=O)Cc1c(C)[nH][nH]c1=O` [MLS000555854]: the IC50 worked out at 1460 nM.
To `COc1ccc(OC)c(C=NNC(=O)Cc2c(C)[nH][nH]c2=O)c1` [SMR000147372] belongs 2130 nM.
